Laboratory results reported in the SangsterLogP compilation.

Assay: method code SF-AS, from DOI: 10.1080/09553007914550151, PMID: 312783
Conditions: pH 7.4

**Q.** With `O=[N+]([O-])c1nccn1CCCOc1ccccc1` as the molecule, how does the logD read?
**A.** Its logD is 2.38.

**Q.** With `O=[N+]([O-])c1nccn1CCOc1ccccc1` as the molecule, how does the logD read?
**A.** Its logD is 1.89.

**Q.** For `COC(=O)c1cnc([N+](=O)[O-])n1C`, which logD is on record?
**A.** The logD was 0.51.

**Q.** With `COCC(O)Cn1cc([N+](=O)[O-])nc1C` (configuration not stated) as the molecule, how does the logD read?
**A.** Its logD is -0.36.

**Q.** Which logD does the source give for `COCCn1ccnc1[N+](=O)[O-]` here?
**A.** The logD was 0.12.

**Q.** For `O=[N+]([O-])c1nccn1CCS(=O)(=O)c1ccccc1`, which logD is on record?
**A.** Its logD is 0.52.

**Q.** With `O=[N+]([O-])c1nccn1CCN1CCOCC1` as the molecule, how does the logD read?
**A.** The logD was -0.1.

**Q.** With `COCc1ccc([N+](=O)[O-])o1` as the molecule, how does the logD read?
**A.** Its logD is 0.89.

**Q.** With `CC(=O)Cn1ccnc1[N+](=O)[O-]` as the molecule, how does the logD read?
**A.** Its logD is -0.34.

**Q.** Which logD does the source give for `O=[N+]([O-])c1cn(CCN2CCOCC2)cn1` here?
**A.** The logD was -0.38.

**Q.** For `COC(=O)Cn1ccnc1[N+](=O)[O-]`, which logD is on record?
**A.** Its logD is -0.09.

**Q.** With `C=Cc1cnc([N+](=O)[O-])n1C` as the molecule, how does the logD read?
**A.** Its logD is 0.64.

**Q.** Which logD does the source give for `CS(=O)(=O)CCn1ccnc1[N+](=O)[O-]` here?
**A.** Its logD is -1.3.

**Q.** With `Cn1c(CO)cnc1[N+](=O)[O-]` as the molecule, how does the logD read?
**A.** Its logD is -0.35.

**Q.** Which logD does the source give for `CC(C)OCC(O)Cn1ccnc1[N+](=O)[O-]` (configuration not stated) here?
**A.** The logD was 0.51.

**Q.** For `Cn1c(C(C)(C)O)cnc1[N+](=O)[O-]`, which logD is on record?
**A.** The logD was 0.43.

**Q.** For `CCOCCn1ccnc1[N+](=O)[O-]`, which logD is on record?
**A.** Its logD is 0.53.
